In US20260124309A1, “STAT6 DEGRADERS AND USES THEREOF” (Kymera Therapeutics, Inc., priority 2023, published 2026):
pIC50: −log10 of the molar value.

Legend:
[1] = target: T1, biotinylated truncated STAT6 (123-632)-avi (Homo sapiens, UniProt P42226); assay: STAT6 HTRF binding assay; details: HTRF binding, 0.15 nM biotinylated truncated STAT6 (123-632)-avi, 20 nM fluorescein-labeled probe
T1 construct: biotinylated truncated STAT6 (123-632)-avi purified from E. coli; made in house; host or cells: E. coli
T1 sequence (P42226 123-632 limits assumed): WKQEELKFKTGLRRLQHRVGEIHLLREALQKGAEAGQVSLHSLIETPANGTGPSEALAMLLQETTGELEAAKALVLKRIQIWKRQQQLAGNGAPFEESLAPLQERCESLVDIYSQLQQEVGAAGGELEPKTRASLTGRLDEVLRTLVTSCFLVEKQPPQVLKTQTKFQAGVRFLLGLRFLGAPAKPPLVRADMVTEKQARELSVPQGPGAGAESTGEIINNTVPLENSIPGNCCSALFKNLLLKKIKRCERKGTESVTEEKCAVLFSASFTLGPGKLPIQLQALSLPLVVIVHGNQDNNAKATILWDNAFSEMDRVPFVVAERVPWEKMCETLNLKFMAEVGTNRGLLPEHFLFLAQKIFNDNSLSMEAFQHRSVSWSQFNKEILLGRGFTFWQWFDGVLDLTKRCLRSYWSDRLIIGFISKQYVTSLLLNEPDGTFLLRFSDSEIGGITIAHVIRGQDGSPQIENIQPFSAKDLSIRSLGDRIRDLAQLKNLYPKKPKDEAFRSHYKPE
Procedure: HTRF binding assays were performed using 0.15 nM biotinylated truncated STAT6 (123-632)-avi purified from E. coli, 1× Streptavidin-terbium (CisBio) prepared by mixing SA-Tb in PPI detection buffer (CisBio), 20 nM proprietary fluorescein-labeled probe, and test compounds in assay buffer consisting of 50 mM HEPES-Na pH 7.5, 100 mM NaCl, 1 mM EDTA, 2 mM DTT, 0.1% Tween-20 with a final volume of 20 uL. Compound stocks were dissolved at 10 mM in 100% DMSO and 11 point titration with 3 fold serial dilution was performed in white, opaque 384 well microplates. Reaction plates were incubated at room temperature for 30 minutes. Plates were centrifuged at low rpm for 5 mins, and the ratio of fluorescence intensities were measured at emission wavelengths for fluorescein acceptor (520 nm) and terbium donor (495 nm) on Envision Plate reader. % Inhibition was calculated from the 520/495 ratio generated by using proprietary positive control compound for 100% inhibition and DMSO only reactions for 0% inhibition. Data was processed and dose response curves were generated using GraphPad Prism to determine the concentration required for inhibiting 50% of the HTRF signal (IC50).
The letter codes for IC50 (μM) include: A (<0.1 μM); B (0.1-1 μM); C (>1-10 μM); D (>10-100 μM); E (>100 μM); and F (not tested).

STAT6-HiBiT = target: T2, STAT6-HiBiT (Homo sapiens, UniProt P42226); assay: STAT6 HiBiT degradation in A549 (STAT6-HiBiT) cells; assay type: cell-based; details: 24 h
T2 construct: Degradation of STAT6 in endogenously tagged STAT6-HiBiT A549 cells; endogenous in cells; host or cells: A549 (STAT6-HiBiT) knock-in cells
T2 sequence (P42226 1-847): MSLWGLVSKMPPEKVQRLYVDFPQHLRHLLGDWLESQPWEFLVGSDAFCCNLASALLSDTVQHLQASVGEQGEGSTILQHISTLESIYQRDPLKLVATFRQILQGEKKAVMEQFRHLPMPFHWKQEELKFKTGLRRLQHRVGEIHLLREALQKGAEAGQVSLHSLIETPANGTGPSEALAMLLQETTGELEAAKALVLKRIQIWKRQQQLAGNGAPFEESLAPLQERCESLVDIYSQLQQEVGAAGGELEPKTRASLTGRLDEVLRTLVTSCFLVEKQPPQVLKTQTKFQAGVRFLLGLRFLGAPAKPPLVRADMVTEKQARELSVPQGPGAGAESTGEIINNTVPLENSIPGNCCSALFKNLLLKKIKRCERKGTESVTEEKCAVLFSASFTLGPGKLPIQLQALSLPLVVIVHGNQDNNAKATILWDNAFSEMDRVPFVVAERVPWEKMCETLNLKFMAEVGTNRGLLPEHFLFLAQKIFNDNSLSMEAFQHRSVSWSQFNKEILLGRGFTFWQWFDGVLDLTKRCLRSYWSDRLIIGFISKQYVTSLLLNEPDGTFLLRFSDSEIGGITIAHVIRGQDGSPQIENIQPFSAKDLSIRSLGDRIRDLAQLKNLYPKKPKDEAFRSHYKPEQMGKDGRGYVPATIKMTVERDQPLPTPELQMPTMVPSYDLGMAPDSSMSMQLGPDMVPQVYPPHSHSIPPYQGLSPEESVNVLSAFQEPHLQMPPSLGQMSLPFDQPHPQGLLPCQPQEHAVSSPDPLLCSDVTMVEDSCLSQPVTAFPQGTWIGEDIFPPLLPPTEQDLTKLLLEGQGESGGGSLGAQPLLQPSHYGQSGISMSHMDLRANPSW
Procedure: Degradation of STAT6 in endogenously tagged STAT6-HiBiT A549 cells was quantitatively measured using the Nano-Glo HiBiT Lytic Detection System (Promega, 3040). A549 (STAT6-HiBiT) cells were seeded in 384-well plates with a density of 1.25k cells per well in 20 μl fresh media. Compounds were then added to the assay plates using the Apricot S3 with a final top concentration of up to 10 uM in a 4-fold dilution series with total of 10 doses. The assay plates were then incubated for 24 hours at 37° C. under 5% CO2. At the assay endpoint, 20 μL of Nano-Glo HiBiT Lytic Reagent was added to each well and agitated on a plate shaker at 300 rpm for 10 minutes at room temperature. Luminescence was read on PHERAStar FSX Instrument (Is integration time). The data was analyzed by GraphPad Prism and the dose dependent STAT6 degradation was fit using the four-parameter inhibitor vs. response nonlinear regression.
The letter codes for DC50 (nM) include: A (<1 nM): B (1-10 nM); C (>10-100 nM); D (>100-1000 nM); E (>1000 nM); and F (not tested). The letter codes for Dmax (%) include: A (>90%); B (>70-90%); C (>50-70%); D (<50%); and E (not tested).

STAT6 = target: T3, STAT6 (Homo sapiens, UniProt P42226); assay: STAT6 MSD degradation in A549 cells; assay type: cell-based; details: 24 h
T3 construct: endogenous in cells; host or cells: A549
T3 sequence (P42226 1-847): T2 sequence (P42226 1-847)
Procedure: Degradation of STAT6 in cells was quantitatively measured using Meso Scale Discovery (MSD) technology. A549 cells were seeded in 96-well plates with a density of 1.5×10e4 to 5×10e5 cells per well in 100 μl fresh media. Compounds were then added to the assay plates with a final top concentration of up to 10 uM in a 1:3 dilution series with total of 9 doses. The assay plates were then incubated for 4 to 24 hours at 37° C. under 5% CO2. The assay plates were then centrifuged for 5 minutes and the cell pellets were treated with 100 μl/well RIPA lysis buffer (Boston Bioproducts, BP-115D) with protease and phosphatase inhibitors (Roche, 05892791001 and 04906837001). To prepare the MSD assay plates (MSD, L15XA), the plates were coated with the capture antibody (Abnova, H00006778) in PBS, at 40 μl/well. The plates were then incubated overnight at 4° C., washed 1 time with 150 μl/well TBST buffer (Cell Signaling Technology, #9997S) and blocked with 150 μl/well blocking buffer (MSD, R93BA-4). Cell lysates were then added to MSD assay plates and the plates were incubated at room temperature for 1 hour. The plates were then washed 3 times with 150 μl/well TBST buffer and 25 μl/well primary detection antibody (Cell Signaling Technology, #5397S). The assay plates were then incubated at room temperature for 1 hour, washed 3 times with 150 μl/well TBST buffer, and 25 μl/well secondary detection antibody, SULFO-TAG anti-rabbit antibody (MSD, R32AB-1) were added. The assay plates were then incubated at room temperature for 1 hour, washed 3 times with 150 μl/well TBST buffer, and 150 μl/well MSD reading buffer (MSD, R92TC-2) were added. The plates were then analyzed by an MSD reader. The data was analyzed by GraphPad Prism and the dose dependent STAT6 degradation was fit using the four-parameter inhibitor vs. response nonlinear regression.
The letter codes for DC50 (nM) include: A (<1 nM); B (1-10 nM); C (>10-100 nM); D (>100-1000 nM); E (>1000 nM); and F (not tested). The letter codes for Dmax (oo) include: A (>90%); B (>70-90%); C (>50-70%); D ([…]); and F (not tested).

Compound	pIC50 [1]	DC50 (STAT6-HiBiT) [nM]	Dmax (STAT6-HiBiT) [%]	DC50 (STAT6) [nM]	Dmax (STAT6) [%]
Cc1nn([C@H]2CCC(=O)NC2=O)c2cccc(CCN3CCN(c4cc(Cl)c(-c5cc(C6=CCCN(C(=O)CCn7cccn7)C6)c(F)c6[nH]c(C(=O)N(C)C)cc56)cc4F)CC3)c12 (single isomer, unassigned) [Example I-1078]	> 7.00	< 1	> 90	–	–
Cc1nn(C2CCC(=O)NC2=O)c2cccc(CCN3CCN(c4cc(Cl)c(-c5cc(C6=CCCN(C(=O)CCn7cccn7)C6)c(F)c6[nH]c(C(=O)N(C)C)cc56)cc4F)CC3)c12 (single isomer, unassigned) [Example I-1079]	> 7.00	< 1	> 90	–	–
CN(C)C(=O)c1cc2c(-c3ccc(C4CCN(c5ccc([C@@H]6CCC(=O)NC6=O)cc5F)CC4)cc3)cc(C3=CCCN(C(=O)CCn4ccnn4)C3)c(F)c2[nH]1 (single isomer, unassigned) [Example I-1438]	> 7.00	< 1	> 90	–	–
CN(C)C(=O)c1cc2c(-c3ccc(C4CCN(c5ccc(C6CCC(=O)NC6=O)cc5F)CC4)cc3)cc(C3=CCCN(C(=O)CCn4ccnn4)C3)c(F)c2[nH]1 (single isomer, unassigned) [Example I-1439]	> 7.00	< 1	> 90	–	–
CN(C)C(=O)c1cc2c(F)c(C3=CCCN(C(=O)CCn4cccn4)C3)cc(-c3ccc(C4CN(C(=O)c5ccc(Cl)c(C6CCC(=O)NC6=O)c5)C4)cc3)c2o1 (stereo not drawn) [Example I-495, 5-(1-(3-(1H-pyrazol-1-yl)propanoyl)-1,2,5,6-tetrahydropyridin-3-yl)-7-(4-(1-(4-chloro-3-(2,6-dioxopiperidin-3-yl)benzoyl)azetidin-3-yl)phenyl)-4-fluoro-N,N-dimethylbenzofuran-2-carboxamide]	> 7.00	–	–	10 to 100	50 to 70
Cc1cc(C2CCN(c3cccc4c3n(C)c(=O)n4C3CCC(=O)NC3=O)CC2)ccc1-c1cc(C2=CCCN(C(=O)C(C)C)C2)c(F)c2[nH]c(C(=O)N(C)C)cc12 (stereo not drawn) [Example I-566]	5.00 to 6.00	–	–	< 1	> 90
CN(C)C(=O)c1cc2c(-c3ccc(C4CCN(c5ccc(C6CCC(=O)NC6=O)cc5F)CC4)cc3)cc(C3=CCCN(C(=O)CCn4cccn4)C3)c(F)c2[nH]1 (stereo not drawn) [Example I-628, 6-(1-(3-(1H-pyrazol-1-yl)propanoyl)-1,2,5,6-tetrahydropyridin-3-yl)-4-(4-(I-(4-(2,6-dioxopiperidin-3-yl)-2-fluorophenyl)piperidin-4-yl)phenyl)-7-fluoro-N,N-dimethyl-1H-indole-2-carboxamide]	> 7.00	–	> 90	< 1	> 90
COc1cc(N2CCN(c3ccc(-c4cc(C5=CCCN(C(=O)CCn6cccn6)C5)c(F)c5[nH]c(C(=O)N(C)C)cc45)c(F)c3F)CC2)c(F)cc1NC1CCC(=O)NC1=O (stereo not drawn) [Example I-677, 6-(1-(3-(1H-pyrazol-1-yl)propanoyl)-1,2,5,6-tetrahydropyridin-3-yl)-4-(4-(4-(4-((2,6-dioxopiperidin-3-yl)amino)-2-fluoro-5-methoxyphenyl)piperazin-1-yl)-2,3-difluorophenyl)-7-fluoro-N,N-dimethyl-1H-indole-2-carboxamide]	> 7.00	< 1	> 90	< 1	> 90
COc1cc(N2CCN(CCCCCCCCN(C(=O)[C@H]3CCCN(c4cncc5ccccc45)C3)c3ccc(=O)n(CC(=O)O)c3)CC2)ccc1-c1cc(C2=CCCN(C(=O)CCn3ccnn3)C2)c(F)c2[nH]c(C(=O)N(C)C)cc12 [Example I-1076, (S)-2-(5-(N-(8-(4-(4-(6-(l-(3-(1H-1,2,3-triazol-1-yl)propanoyl)-1,2,5,6-tetrahydropyridin-3-yl)-2-(dimethylcarbamoyl)-7-fluoro-LH-indol-4-yl)-3-methoxyphenyl)piperazin-1-yl)octyl)-1-(isoquinolin-4-yl)piperidine-3-carboxamido)-2-oxopyridin-1 (2H)-yl)acetic acid]	> 7.00	–	–	10 to 100	50 to 70
